In patent US9360486B2, “Allergen fragments” (Biomay AG, priority 2007, dated 2016):

Tested on: Amb a 1-specific T cell lines (TCL)
Test: T cell epitope mapping of Amb a 1.3: proliferation (3H-thymidine uptake) of TCL stimulated with synthetic peptides
Format: cell-based, human
Settings: for T cell activating region recognized by % of patients: classes of prevalence referring to SI>5, 48 TCL; for No. positive patients SI > 3 / No. positive patients SI > 5 / % (positive patients SI > 3) / % (positive patients SI > 5): TCL from 48 ragweed pollen-allergic patients, peptide 5 μg/ml; for No. positive patients SI > 3 / No. positive patients SI > 5: 3H-thymidine uptake after 48 hrs; for No. positive patients SI > 3 / % (positive patients SI > 3): stimulation index > 3; for No. positive patients SI > 5 / % (positive patients SI > 5): stimulation index > 5
Source text: The T cell response to Amb a 1 was characterized in detail using the established in vitro culture system (Jahn-Schmid et al., J. Immunol. 169: 6005-11, 2002; Jahn-Schmid et al., J. Allergy Clin. Immunol., 115: 399-404, 2005). In total, 85 clinically well-defined patients (75 from Vienna/10 from Milano) with typical case history, positive skin prick test and CAP/RAST tests for ragweed extract were included.
Peripheral blood mononuclear cells (PBMC) were isolated from heparinized blood of allergic patients by Ficoll density gradient centrifugation. To generate allergen-specific T cell lines (TCL) and T cell clones (TCC), 1.5×10^6 PBMC were stimulated with optimal doses of ragweed or mugwort extract (4 μg/ml) or rAmb a 1.3 (10 μg/ml) in 24-well flat-bottomed culture plates (Costar, USA). After 5 days human rIL-2 (10 U/ml, Boehringer, Mannheim, Germany) were added and cultures were continued for additional 7 days. Then, T cell blasts were isolated by density centrifugation. The majority of T cell blasts was further expanded with IL-2 and irradiated PBMC. A small number of T cell blasts were used to establish monoclonal T cell cultures by limiting dilution: 0.3 T cells/well were seeded into 96 well round bottom plates (Nunclone) in the presence of 2×10^5 irradiated (60 Gy) PBMC, 0.25% v/v PHA (Gibco, USA) and rIL-2 (4 U/well) in the medium mentioned above. After 14-21 days, growing microcultures were expanded at weekly intervals with irradiated PBMC and rIL-2. The specificity of TCC was assessed in proliferation assays using irradiated allogeneic or HLA-matched PBMC or irradiated EBV-transformed allogeneic B-cells and 5 μg/ml Amb a 1.3. After 48 hours, cellular uptake of tritiated (^3H)-thymidine was performed to measure proliferation in counts per minute (cpm). When the stimulation index (SI; ratio between cpm obtained in cultures containing TCC plus autologous APC plus antigen, and cpm obtained in cultures containing TCC and APC alone) was >10, responses were considered as positive. Allergen-specific TCC were expanded by alternating turns of stimulation with autologous irradiated APC and allergen or with allogeneic feeder cells and rIL-2.
Amb a 1-specific TCL and TCC were used to identify T cell epitopes of Amb a 1.3. T cell cultures were stimulated with a panel of 121 synthetic 12-mer peptides and one 13-mer representing the C-terminal peptide of Amb a 1.3 (Pepset, Biotrend, Germany). Peptides had been synthesized according to the Amb a 1.3 amino acid sequence and overlapped for 9 amino acid residues with the neighbouring peptides (Table 1). Peptides were used at a concentration of 5 μg/ml for stimulation and proliferation of T cell cultures was determined after 48 hrs by ^3H-thymidine-uptake. Because of the frequently observed high background caused by auto-reactivity in TCL, the mean of the cpm observed with the ten least stimulating peptides (none of the peptides was toxic) was used as negative control in calculations of SI. Throughout this manuscript, a peptide comprised one T cell epitope when the stimulation index was at least 3.0.
T cell epitope mapping of Amb a 1.3 was performed evaluating 48 TCL from different patients ([…]), which had been initiated with ragweed extract (containing the natural allergen) or rAmb a 1.3 (Table 2). TCL induced with either ragweed extract or rAmb a 1.3 from the same individual recognized similar T cell epitopes (Table 2; FIG. 7). […] Therefore, their data were combined for further analysis (Table 3). Typical for many inhalant allergens, multiple T cell activating regions were detected in Amb a 1.3. The number of peptides recognized by T cells from a single individual ranged from 2 to maximum 60 peptides with a mean of 17.8 peptides (median=16/for SI>3; resp. 0-36/11.9/12 for SI>5) (see Table 3). In total, 26 relevant (i.e. recognized by ≧10% of patients studied) T cell activating regions comprising 12-18 aa were identified. […]

Sequence	reactivity with T cells isolated from allergic individuals	T cell activating region recognized by % of patients	No. positive patients SI > 3	No. positive patients SI > 5	% (positive patients SI > 3)	% (positive patients SI > 5)	T cell reactivity with samples from individuals suffering from ragweed pollen allergy
GEAAIKLTSSAGVLSCRP (Amb a 1 fragment) [Peptide 118-120]	reactivity with T cells	recognized by 20.8%	–	–	–	–	–
GKWGDVYTVTSN (Amb a 1 fragment) [Peptide 20]	reactivity with T cells	recognized by 14.6%	9	7	18.8%	14.6%	–
GMIKSNDGPPIL (Amb a 1 fragment) [Peptide 52]	reactivity with T cells	recognized by 56.3%	31	27	64.6%	56.3%	high T cell reactivity
GNRFLAPDDQIK (Amb a 1 fragment) [Peptide 96]	reactivity with T cells	–	5	4	10.4%	8.3%	–
GRGVKVEIINGG (Amb a 1 fragment) [Peptide 40]	–	–	3	4	6.3%	8.3%	–
GSSQIWIDHCSL (Amb a 1 fragment) [Peptide 60]	reactivity with T cells	–	30	28	62.5%	58.3%	–
GSSQIWIDHCSLSKS (Amb a 1 fragment) [Peptide 60-61]	reactivity with T cells	–	–	–	–	–	–
GSTHVTISNCKF (Amb a 1 fragment) [Peptide 68]	reactivity with T cells	recognized by 33.3%	20	16	41.7%	33.3%	high T cell reactivity
GVGEILPSVNET (Amb a 1 fragment) [Peptide 2]	–	–	2	1	4.2%	2.1%	–
HVTISNCKFTQQ (Amb a 1 fragment) [Peptide 69]	reactivity with T cells	–	8	4	16.7%	8.3%	–
IDHCSLSKSFDG (Amb a 1 fragment) [Peptide 62]	–	–	3	2	6.3%	4.2%	–
IFVTSGSDPVLT (Amb a 1 fragment) [Peptide 110]	reactivity with T cells	–	13	11	27.1%	22.9%	–
IGGSSAPTILCQ (Amb a 1 fragment) [Peptide 92]	–	–	3	2	6.3%	4.2%	–
IHDVKVLPGGMI (Amb a 1 fragment) [Peptide 49]	–	–	3	2	6.3%	4.2%	–
IIFKNDMVINLN (Amb a 1 fragment) [Peptide 32]	–	–	2	1	4.2%	2.1%	–
IIHNINIHDVKV (Amb a 1 fragment) [Peptide 47]	reactivity with T cells	–	14	10	29.2%	20.8%	–
ILLGADDTHVQD (Amb a 1 fragment) [Peptide 74]	–	–	3	1	6.3%	2.1%	–
ISNCKFTQQSKA (Amb a 1 fragment) [Peptide 70]	–	–	1	1	2.1%	2.1%	–
KADWENNRQALA (Amb a 1 fragment) [Peptide 12]	reactivity with T cells	–	5	1	10.4%	2.1%	–
KGMLATVAFNMF (Amb a 1 fragment) [Peptide 78]	reactivity with T cells	recognized by 12.5%	11	6	22.9%	12.5%	–
KNDMVINLNQEL (Amb a 1 fragment) [Peptide 33]	reactivity with T cells	–	15	13	31.3%	27.1%	–
KNDMVINLNQELVVN (Amb a 1 fragment) [Peptide 33-34]	reactivity with T cells	recognized by 27.1%	–	–	–	–	–
KNIIIHNINIHD (Amb a 1 fragment) [Peptide 46]	reactivity with T cells	–	10	8	20.8%	16.7%	–
KNIIIHNINIHDVKVLPG (Amb a 1 fragment) [Peptide 46-48]	reactivity with T cells	recognized by 20.8%	–	–	–	–	–
KNVLARTGTGAA (Amb a 1 fragment) [Peptide 100]	reactivity with T cells	recognized by 10.4%	6	5	12.5%	10.4%	–
KSNDGPPILRQA (Amb a 1 fragment) [Peptide 53]	reactivity with T cells	–	5	0	10.4%	0.0%	–
LARTGTGAAESM (Amb a 1 fragment) [Peptide 101]	reactivity with T cells	–	10	7	20.8%	14.6%	–
LARTGTGAAESMAWN (Amb a 1 fragment) [101/102]	reactivity with T cells	recognized by 14.6%	–	–	–	–	–
